Reference: US8901035B2, “Herbicidal compositions comprising 4-amino-3-chloro-5-fluoro-6-(4-chloro-2-fluoro-3-methoxyphenyl) pyridine-2-carboxylic acid or a derivative thereof and cellulose biosynthesis inhibitor herbicides” (Dow AgroSciences LLC, priority 2012, dated 2014)

Tests used:
Type in all cases: in vivo
[1] = tested on: Abutilon theophrasti Medik. (ABUTH); experiment: Pre-emergence soil-applied herbicidal mixtures for weed control (greenhouse)
Description: Seeds or nutlets of the desired test plant species were planted in a soil matrix prepared by mixing a loam soil (e.g., 32 percent silt, 23 percent clay, and 45 percent sand, with a pH of about 6.5 and an organic matter content of about 1.9 percent) and calcareous grit in an 80 to 20 ratio. The soil matrix was contained in plastic pots with a volume of 1 quart and a surface area of 83.6 square centimeters (cm^2).
Treatments consisted of the benzyl ester of 4-amino-3-chloro-5-fluoro-6-(4-chloro-2-fluoro-3-methoxy-phenyl)pyridine-2-carboxylic acid (compound A) formulated as an SC (suspension concentrate) and various herbicidal components alone and in combination. Forms of compound A were applied on an acid equivalent basis.
Other herbicidal components were applied on an acid equivalent or active ingredient basis and included the cellulose biosynthesis inhibiting herbicides, isoxaben formulated as Gallery® 75DF and indaziflam formulated as Specticle® 20WSP.
Treatment requirements were calculated based upon the rates being tested, the concentration of active ingredient or acid equivalent in the formulation, and a 12 mL application volume at a rate of 187 L/ha.
For treatments comprised of formulated compounds, measured amounts of compounds were placed individually in 25 mL glass vials and diluted in a volume of 1.25% (v/v) Agri-Dex® crop oil concentrate (COC) to obtain 12× stock solutions. […] Application solutions were prepared by adding an appropriate amount of each stock solution (e.g., 1 mL) and diluted to the appropriate final concentrations with the addition of 10 mL of an aqueous mixture of 1.25% (v/v) COC so that the final spray solutions contained 1.25% (v/v) COC.
All stock solutions and applications solutions were visually inspected for compound compatibility prior to application. Spray solutions were applied to the soil with an overhead Mandel track sprayer equipped with a 8002E nozzles calibrated to deliver 187 L/ha over an application area of 0.503 m^2 at a spray height of 18 inches (46 cm) above average pot height. Control pots were sprayed in the same manner with the solvent blank.
The treated and control pots were placed in a greenhouse and top watered as needed. When required to ensure good germination and healthy plants, a fungicide treatment and/or other chemical or physical treatment was applied. The pots were maintained in a greenhouse with an approximate 14 hr. photoperiod which was maintained at about 29° C. during the day and 26° C. during the night. Nutrients (Peters® Excel 15-5-15 5-Ca 2-Mg) were applied in the irrigation solution as needed and water was added on a regular basis. Supplemental lighting was provided with overhead metal halide 1000-Watt lamps as necessary. After approximately 4 weeks, the condition of the test plants as compared with that of the untreated plants was determined visually and scored on a scale of 0 to 100 percent where 0 corresponds to no injury or growth inhibition and 100 corresponds to complete kill.
(§1) Colby's equation was used to determine the herbicidal effects expected from the mixtures (Colby, S. R. 1967. Calculation of the synergistic and antagonistic response of herbicide combinations. Weeds 15:20-22).
(§2) The following equation was used to calculate the expected activity of mixtures containing two active ingredients, A and B: Expected=A+B−(A×B/100)
(§3) A=observed efficacy of active ingredient A at the same concentration as used in the mixture.
(§4) B=observed efficacy of active ingredient B at the same concentration as used in the mixture.

[2] = tested on: Amaranthus retroflexus L. (AMARE); experiment: Postemergence herbicidal activity of mixtures in cereal crops in the greenhouse
Description: (§5) Seeds of the desired test plant species were planted in Sun Gro MetroMix 306 planting mixture, which typically has a pH of 6.0 to 6.8 and an organic matter content of about 30 percent, in plastic pots with a surface area of 103.2 square centimeters (cm^2). When required to ensure good germination and healthy plants, a fungicide treatment and/or other chemical or physical treatment was applied. The plants were grown for 7-36 days in a greenhouse with an approximate 14 hour photoperiod which was maintained at about 18° C. during the day and about 17° C. during the night. Nutrients and water were added on a regular basis and supplemental lighting was provided with overhead metal halide 1000-Watt lamps as necessary. The plants were employed for testing when they reached the second or third true leaf stage.
(§6) Treatments consisted of the benzyl ester of 4-amino-3-chloro-5-fluoro-6-(4-chloro-2-fluoro-3-methoxy-phenyl)pyridine-2-carboxylic acid (Compound A), formulated as an SC, a second cereal herbicide alone and then both in combination.
(§7) Other herbicidal components were applied on an active ingredient basis and included cellulose biosynthesis inhibiting herbicides.
(§8) Measured aliquots of benzyl ester of 4-amino-3-chloro-5-fluoro-6-(4-chloro-2-fluoro-3-methoxy-phenyl)pyridine-2-carboxylic acid (Compound A) were placed in 25 milliliter (mL) glass vials and diluted in a volume of 1.25% (v/v) Agri-Dex® crop oil concentrate to obtain stock solutions. Compound requirements are based upon a 12 mL application volume at a rate of 187 liters per hectare (L/ha). Spray solutions of the second cereal herbicide and experimental compound mixtures were prepared by adding the stock solutions to the appropriate amount of dilution solution to form 12 mL spray solution with active ingredients in two- and three-way combinations. Formulated compounds were applied to the plant material with an overhead Mandel track sprayer equipped with an 8002E nozzle calibrated to deliver 187 L/ha over an application area of 0.503 square meters (m^2) at a spray height of 18 inches (46 cm) above average plant canopy. Control plants were sprayed in the same manner with the solvent blank.
(§9) The treated plants and control plants were placed in a greenhouse as described above and watered by sub-irrigation to prevent wash-off of the test compounds. After 20-22 days, the condition of the test plants as compared with that of the control plants was determined visually and scored on a scale of 0 to 100 percent where 0 corresponds to no injury and 100 corresponds to complete kill.
as §1, §2, §3, §4

[3] = tested on: Cirsium arvense (L.) Scop. (CIRAR); experiment: as above
Description: as §5, §6, §7, §8, §9, §1, §2, §3, §4

[4] = tested on: Chenopodium album L. (CHEAL); experiment: as above
Description: as §5, §6, §7, §8, §9, §1, §2, §3, §4

[5] = tested on: Stellaria media (L.) Vill. (STEME); experiment: as above
Description: as §5, §6, §7, §8, §9, §1, §2, §3, §4

[6] = tested on: Galium aparine L. (GALAP); experiment: as above
Description: as §5, §6, §7, §8, §9, §1, §2, §3, §4

[7] = tested on: Sinapis arvensis L. (SINAR); experiment: as above
Description: as §5, §6, §7, §8, §9, §1, §2, §3, §4

[8] = Compound A Benzyl Ester 2.5 g ai/ha alone
[9] = Compound A Benzyl Ester 5 g ai/ha alone
[10] = Compound A Benzyl Ester 10 g ai/ha alone

`CCC(C)(CC)c1cc(NC(=O)c2c(OC)cccc2OC)on1` [Isoxaben, N-[3-(1-ethyl-1-methylpropyl)-5-isoxazolyl]-2,6-dimethoxybenzamide, reference compound] was tested, and the “Visual Weed Control (%) - 27 DAA ABUTH Obs” value ([1]; Isoxaben 560 g ai/ha alone) was 77%, the “Visual Weed Control (%) - 27 DAA ABUTH Obs” value ([1]; Isoxaben 1120 g ai/ha alone) was 67% and the “Visual Weed Control (%) - 21 DAA AMARE Obs” value ([2]; Isoxaben 31.25 g ai/ha alone) was 0%. For the same compound, the “Visual Weed Control (%) - 21 DAA AMARE Obs” value ([2]; Isoxaben 62.5 g ai/ha alone) was 8%, the “Visual Weed Control (%) - 21 DAA Obs” value ([3]; Isoxaben 31.25 g ai/ha alone) was 3% and the “Visual Weed Control (%) - 21 DAA Obs” value ([3]; Isoxaben 62.5 g ai/ha alone) was 13%. The “Visual Weed Control (%) - 21 DAA Obs” value ([3]; Isoxaben 125 g ai/ha alone) was 17%, the “Visual Weed Control (%) - 21 DAA CHEAL Obs” value ([4]; Isoxaben 31.25 g ai/ha alone) was 5% and the “Visual Weed Control (%) - 21 DAA CHEAL Obs” value ([4]; Isoxaben 62.5 g ai/ha alone) was 5%. The “Visual Weed Control (%) - 21 DAA Obs” value ([5]; Isoxaben 31.25 g ai/ha alone) was 5%, the “Visual Weed Control (%) - 21 DAA Obs” value ([5]; Isoxaben 62.5 g ai/ha alone) was 5% and the “Visual Weed Control (%) - 21 DAA Obs” value ([6]; Isoxaben 31.25 g ai/ha alone) was 0%. For the same compound, the “Visual Weed Control (%) - 21 DAA Obs” value ([6]; Isoxaben 62.5 g ai/ha alone) was 8%, the “Visual Weed Control (%) - 21 DAA Obs” value ([6]; Isoxaben 125 g ai/ha alone) was 12% and the “Visual Weed Control (%) - 21 DAA SINAR Obs” value ([7]; Isoxaben 31.25 g ai/ha alone) was 13%. The “Visual Weed Control (%) - 21 DAA SINAR Obs” value ([7]; Isoxaben 62.5 g ai/ha alone) was 13%.

`COc1c(Cl)ccc(-c2nc(C(=O)OCc3ccccc3)c(Cl)c(N)c2F)c1F` [Compound A Benzyl Ester, benzyl ester of 4-amino-3-chloro-5-fluoro-6-(4-chloro-2-fluoro-3-methoxy-phenyl)pyridine-2-carboxylic acid] was tested, and the “Visual Weed Control (%) - 27 DAA ABUTH Obs” value ([1]; Compound A Benzyl Ester 16 g ae/ha alone) was 48%, the “Visual Weed Control (%) - 27 DAA ABUTH Obs” value ([1]; Compound A Benzyl Ester 32 g ae/ha alone) was 87% and the “Visual Weed Control (%) - 21 DAA AMARE Obs” value [2, 8] was 20%. For the same compound, the “Visual Weed Control (%) - 21 DAA AMARE Obs” value [2, 9] was 38%, the “Visual Weed Control (%) - 21 DAA Obs” value [3, 9] was 39% and the “Visual Weed Control (%) - 21 DAA Obs” value [3, 10] was 60%. For the same compound, the “Visual Weed Control (%) - 21 DAA CHEAL Obs” value [4, 8] was 50%, the “Visual Weed Control (%) - 21 DAA CHEAL Obs” value [4, 9] was 58% and the “Visual Weed Control (%) - 21 DAA Obs” value [5, 8] was 25%. The “Visual Weed Control (%) - 21 DAA Obs” value [5, 9] was 25%, the “Visual Weed Control (%) - 21 DAA Obs” value [5, 10] was 27% and the “Visual Weed Control (%) - 21 DAA Obs” value [6, 8] was 55%. For the same compound, the “Visual Weed Control (%) - 21 DAA Obs” value [6, 9] was 66%, the “Visual Weed Control (%) - 21 DAA Obs” value [6, 10] was 77% and the “Visual Weed Control (%) - 21 DAA SINAR Obs” value [7, 8] was 70%. For the same compound, the “Visual Weed Control (%) - 21 DAA SINAR Obs” value [7, 9] was 73%.
